Source: patent US20250099557A1, “ANTIBIOTIC PHARMACEUTICAL COMPOSITION CAPABLE OF SUBCUTANEOUS ADMINISTRATION” (SHANGHAI BAO PHARMACEUTICALS CO., LTD., priority 2021, published 2025)

Columns and labels:
intestinal flora = experiment: Effects of administration routes on the diversity of intestinal flora in mice (16S rDNA sequencing, OTU); assay type: in vivo; details: C57BL/6 mice, feces
From the text: 12 SPF grade C57BL/6 mice were used for each antibiotic mode, and divided into two groups, each having 6 mice. The two groups include an oral administration group, and a subcutaneous administration group combined with recombinant human HAase. A blank control group including 6 mice was also set. The mice in the oral administration group were given the model antibiotic solution by oral gavage for five consecutive days. The mice in the subcutaneous administration group combined with recombinant human HAase were given the same dose of model antibiotic as that in the oral administration group by subcutaneous administration for five consecutive days. The feces of mice in each group were collected on the 1 st, 2nd, 3rd, 4th, 5th, 6th, 8th, 10th and 14th days after five consecutive days of administration, and stored at −80° C., for detecting the microbial diversity later. The fecal samples of each group were amplified and sequenced by 16S rDNA sequencing. After DNA extraction, PCR amplification and gene sequencing, the changes of intestinal bacterial diversity in each group of mice were analyzed. The relative species diversity of the test group was calculated, with the OUT value of the blank control group in each day as a reference, as shown in Table 33.

[1] = Compatibility study of HAase and antibiotic in solution: appearance of the solution; assay type: physicochemical; details: 8 solutions of antibiotic (two concentrations) with HAase 150-6000 units/ml in physiological saline
Experimental: (§1) The compatibility of HAase and an antibiotic was studied by preparing a solution comprising the two substances. A dry Meropenem power for injection was dissolved in physiological saline to give a concentration of 5 mg/ml and 50 mg/ml, and then HAase was added to give a final concentration of 150, 500, 2000, and 6000 units/ml respectively. After preparation, the solution was left to stand at room temperature for 15 min. The appearance of the solution was observed, and the concentration of HAase was determined.
as §1, with “dry Ceftriaxone sodium” for “dry Meropenem”, “of 50” for “of 5”, “and 250” for “and 50”
as §1, with “dry Azithromycin” for “dry Meropenem”, “of 10” for “of 5”, “and 100” for “and 50”
as §1, with “dry Cefradine powder” for “dry Meropenem power”, “of 50” for “of 5”, “and 250” for “and 50”
as §1, with “dry Teicoplanin powder” for “dry Meropenem power”, “of 10” for “of 5”, “and 70” for “and 50”
as §1, with “dry Ceftazidime powder” for “dry Meropenem power”, “of 20” for “of 5”, “and 200” for “and 50”
as §1, with “dry Ertapenem” for “dry Meropenem”, “of 30” for “of 5”, “and 300” for “and 50”
The compatibility of HAase and an antibiotic was studied by preparing a solution comprising the two substances. A dry Polymyxin B powder for injection was dissolved in physiological saline to give a concentration of 50,000 units/ml and 250,000 units/ml, and then HAase was added to give a final concentration of 150, 500, 2000, and 6000 units/ml respectively.

[2] = in combination with recombinant human HAase for subcutaneous administration, five consecutive days, D1 after administration
[3] = in combination with recombinant human HAase for subcutaneous administration, five consecutive days, D2
[4] = in combination with recombinant human HAase for subcutaneous administration, five consecutive days, D3
[5] = in combination with recombinant human HAase for subcutaneous administration, five consecutive days, D4
[6] = in combination with recombinant human HAase for subcutaneous administration, five consecutive days, D5
[7] = in combination with recombinant human HAase for subcutaneous administration, five consecutive days, D6
[8] = in combination with recombinant human HAase for subcutaneous administration, five consecutive days, D8
[9] = in combination with recombinant human HAase for subcutaneous administration, five consecutive days, D10
[10] = in combination with recombinant human HAase for subcutaneous administration, five consecutive days, D14
[11] = oral administration for five consecutive days, D1 after administration
[12] = oral administration for five consecutive days, D2
[13] = oral administration for five consecutive days, D3
[14] = oral administration for five consecutive days, D4
[15] = oral administration for five consecutive days, D5
[16] = oral administration for five consecutive days, D6
[17] = oral administration for five consecutive days, D8
[18] = oral administration for five consecutive days, D10
[19] = oral administration for five consecutive days, D14

Molecule	Relative abundance of OUT (operational taxonomic units) (intestinal flora; [2]) [%]	Relative abundance of OUT (operational taxonomic units) (intestinal flora; [3]) [%]	Relative abundance of OUT (operational taxonomic units) (intestinal flora; [4]) [%]	Relative abundance of OUT (operational taxonomic units) (intestinal flora; [5]) [%]	Relative abundance of OUT (operational taxonomic units) (intestinal flora; [6]) [%]	Relative abundance of OUT (operational taxonomic units) (intestinal flora; [7]) [%]	Relative abundance of OUT (operational taxonomic units) (intestinal flora; [8]) [%]	Relative abundance of OUT (operational taxonomic units) (intestinal flora; [9]) [%]	Relative abundance of OUT (operational taxonomic units) (intestinal flora; [10]) [%]	Relative abundance of OUT (operational taxonomic units) (intestinal flora; [11]) [%]	Relative abundance of OUT (operational taxonomic units) (intestinal flora; [12]) [%]	Relative abundance of OUT (operational taxonomic units) (intestinal flora; [13]) [%]	Relative abundance of OUT (operational taxonomic units) (intestinal flora; [14]) [%]	Relative abundance of OUT (operational taxonomic units) (intestinal flora; [15]) [%]	Relative abundance of OUT (operational taxonomic units) (intestinal flora; [16]) [%]	Relative abundance of OUT (operational taxonomic units) (intestinal flora; [17]) [%]	Relative abundance of OUT (operational taxonomic units) (intestinal flora; [18]) [%]	Relative abundance of OUT (operational taxonomic units) (intestinal flora; [19]) [%]	appearance of the solution [1]
C[C@@H](O)[C@H]1C(=O)N2C(C(=O)O)=C(S[C@@H]3CN[C@H](C(=O)Nc4cccc(C(=O)O)c4)C3)[C@H](C)[C@H]12 [Ertapenem]	30.5	30.9	28.9	31.2	28.2	33.2	36.8	36.7	39.3	16.2	13.1	10.4	14.6	16.0	15.3	15.8	20.9	24.1	clear and transparent
CC1=C(C(=O)O)N2C(=O)[C@@H](NC(=O)[C@H](N)C3=CCC=CC3)[C@H]2SC1 [Cefradine]	35.5	37.2	36.3	36.2	36.2	37.1	42.1	42.9	48.7	24.4	23.6	20.4	22.6	20.7	24.3	25.8	28.6	31.9	clear and transparent
Teicoplanin	51.8	56.0	53.7	56.3	51.2	55.4	63.7	64.8	71.7	44.7	41.9	39.8	41.2	39.4	41.1	46.3	45.9	49.7	clear and transparent
CC(C)(O/N=C(\C(=O)N[C@@H]1C(=O)N2C(C(=O)[O-])=C(C[n+]3ccccc3)CS[C@H]12)c1csc(N)n1)C(=O)O [Ceftazidime]	35.5	34.0	34.3	33.7	34.3	35.1	41.6	42.3	51.3	22.8	20.9	20.4	21.1	19.2	22.3	26.8	29.6	32.5	clear and transparent
CO/N=C(\C(=O)N[C@@H]1C(=O)N2C(C(=O)O)=C(CSc3nc(=O)c(=O)[nH]n3C)CS[C@H]12)c1csc(N)n1 [Ceftriaxone]	31.5	28.8	28.9	33.2	29.1	33.2	37.9	39.3	47.1	16.8	14.7	10.4	14.1	15.5	18.3	15.8	23.0	25.7	clear and transparent
